Publication doi:10.1101/2025.02.28.640722v1 (biorxiv, 2025)
Square brackets hold non-standard residues; d marks the D form. Peptide text beside a SMILES is read from it. * marks the point of attachment. hCha = N[C@@H](CCC1CCCCC1)C(=O)O; Bz = O=C(c1ccccc1)*

Target: Human mitochondrial ClpP (hClpP) (Homo sapiens, UniProt Q16740)
Test: peptidase activation
Format: biochemical
Conditions: activator at 1.5 mM, 200 nM human ClpP, no ATPase partner

Chain of Human mitochondrial ClpP (hClpP) (Q16740 57-277): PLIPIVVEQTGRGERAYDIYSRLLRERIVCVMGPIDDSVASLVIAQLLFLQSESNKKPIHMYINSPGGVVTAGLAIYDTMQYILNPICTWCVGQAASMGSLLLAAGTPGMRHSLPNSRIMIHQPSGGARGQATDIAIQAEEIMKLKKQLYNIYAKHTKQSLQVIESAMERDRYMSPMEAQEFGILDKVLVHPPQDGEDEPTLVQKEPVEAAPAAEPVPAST

CC[C@H](C)[C@H](NC(=O)[C@H](CCC1CCCCC1)NC(=O)c1ccccc1)C(=O)O [Bz-ChEtg-Ile] (Bz-[hCha]-Ile-OH)
fold activation: >15 times
